What was measured:
[1] = target: T1, Coagulation factor X (Homo sapiens, UniProt P00742); assay: Inhibitory activity against Plasma coagulation enzyme factor Xa; Value expressed as k Act/k UNCAT (uncatalyzed); format: cell-free
[2] = target: T1, Coagulation factor X; assay: Second-order rate constant of factor Xa inhibition
[3] = target: T1, Coagulation factor X; assay: Equilibrium dissociation constant of factor Xa inhibition

T1 sequence (P00742 41-179 limits assumed): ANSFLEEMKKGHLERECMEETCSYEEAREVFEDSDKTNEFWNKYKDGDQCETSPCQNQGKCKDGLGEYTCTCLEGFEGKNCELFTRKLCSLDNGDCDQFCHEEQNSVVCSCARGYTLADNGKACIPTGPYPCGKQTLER
T1 sequence (P00742 235-488 limits assumed): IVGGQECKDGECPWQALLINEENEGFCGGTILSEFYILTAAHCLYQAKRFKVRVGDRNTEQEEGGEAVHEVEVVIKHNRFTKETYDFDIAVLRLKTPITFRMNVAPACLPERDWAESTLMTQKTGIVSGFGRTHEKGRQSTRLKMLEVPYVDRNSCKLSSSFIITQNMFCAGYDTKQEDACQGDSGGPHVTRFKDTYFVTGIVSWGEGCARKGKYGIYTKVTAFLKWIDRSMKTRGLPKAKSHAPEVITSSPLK

Row | SMILES | Acceleration [1] | k act [2] [M⁻¹ s⁻¹] | Kd [3] [µM]
1 | CO[C@H]1O[C@H](COS(=O)(=O)O)[C@@H](O[C@@H]2O[C@H](C(=O)O)[C@@H](O[C@H]3O[C@H](COS(=O)(=O)O)[C@@H](O)[C@H](O)[C@H]3NS(=O)(=O)O)[C@H](O)[C@H]2O)[C@H](OS(=O)(=O)O)[C@H]1NS(=O)(=O)O | 320 | 45000 | 2
2 | CO[C@@H]1O[C@@H](C(=O)O)[C@@H](O[C@H]2OC(COS(=O)(=O)O)=C[C@H](OS(=O)(=O)O)[C@H]2NS(=O)(=O)O)[C@H](O)[C@H]1OS(=O)(=O)O | 19.7 | 6400 | 95
3 | O=S(=O)(O)Oc1cc2c(c(OS(=O)(=O)O)c1)CC(OS(=O)(=O)O)C(c1ccc(OS(=O)(=O)O)c(OS(=O)(=O)O)c1)O2 (stereo unspecified) | 8.5 | 2770 | 26.1
4 | O=S(=O)(O)Oc1cc2c(c(OS(=O)(=O)O)c1)C[C@@H](OS(=O)(=O)O)[C@H](c1ccc(OS(=O)(=O)O)c(OS(=O)(=O)O)c1)O2 | 20.8 | 6750 | 3.5
5 | O=S(=O)(O)Oc1cc2c(c(OS(=O)(=O)O)c1)C[C@H](OS(=O)(=O)O)[C@H](c1ccc(OS(=O)(=O)O)c(OS(=O)(=O)O)c1)O2 | 10.4 | 3380 | 10.7
6 | O=c1c(OS(=O)(=O)O)c(-c2ccc(OS(=O)(=O)O)cc2OS(=O)(=O)O)oc2cc(OS(=O)(=O)O)cc(OS(=O)(=O)O)c12 | 21.8 | 7100 | 1.8
7 | O=c1c(OS(=O)(=O)O)c(-c2ccc(OS(=O)(=O)O)c(OS(=O)(=O)O)c2)oc2cc(OS(=O)(=O)O)cc(OS(=O)(=O)O)c12 | 17.5 | 5700 | 17

— ChEMBL document CHEMBL1136588, “Exploring new non-sugar sulfated molecules as activators of antithrombin” (Bioorg Med Chem Lett, 2003)
